Experimental data from ChEMBL document CHEMBL6153057, “Novel Imidazotriazine Derivatives as IL-17 Modulators for Treating Inflammatory and Autoimmune Disorders” (ACS Med Chem Lett, 2025).

test: Antiinflammatory activity in human HDF cells assessed as inhibition of IL-17A/TNF-alpha-stimulated IL-6 release preincubated for 5 hrs followed by IL-17A/TNF-alpha stimulation and measured after 18 to 20 hrs by homogenous time-resolved FRET based assay; assay type: functional, cell-based

| SMILES | IC50 |
| --- | --- |
| [2H]C([2H])([2H])O[C@@H]1CCN(C(=O)[C@@H]2CCC(F)(F)CO2)[C@H](c2cnn3cc([C@@H](NC(=O)c4ccnn4C)C4CCC(F)(F)CC4)nc3n2)C1 | 3.98 nM |
| CO[C@@H]1CCN(C(=O)[C@@H]2CCC(F)(F)CO2)[C@H](c2cnn3cc([C@@H](NC(=O)c4ccnn4C)C4CCC(F)(F)CC4)nc3n2)C1 | 3.16 nM |
| CO[C@@H]1CCN(C(=O)[C@@H]2CCC(F)(F)CO2)[C@@H](c2cnn3cc([C@@H](NC(=O)c4ccnn4C)C4CCC(F)(F)CC4)nc3n2)C1 | 39.8 nM |
| [2H]C([2H])([2H])O[C@@H]1CCN(C(=O)[C@@H]2CCC(F)(F)CO2)[C@@H](c2cnn3cc([C@@H](NC(=O)c4ccnn4C)C4CCC(F)(F)CC4)nc3n2)C1 | 39.8 nM |
